SMILES strings stand for the structures.

For orientation: IC50 means the point on the concentration scale where inhibition reaches its midpoint.

The target in this assay is Beta-secretase 1 (Homo sapiens, UniProt P56817). Nature of the assay: Inhitbition Assay: 48.5 µL of substrate peptide solution (Biotin-XSEVNLDAEFRHDSGC-Eu: X=ε-amino-n-capronic acid, Eu=Europium cryptate) was added to each well of 96-hole half-area plate (a black plate: Costar), and after addition of 0.5 µl of the test compound (dissolved in N,N'-dimethyl formaldehyde) and 1 µl of Recombinant human BACE1(R&D Systems), the reaction mixture was incubated at 30° C. for 3 hours. The substrate peptide was synthesized by reacting Cryptate TBPCOOH mono SMP (CIS bio international) with Biotin-XSEVNLDAEFRHDSGC (Peptide Institute, Inc.). The final concentrations of the substrate peptide and Recombinant human BACE1 were adjusted to 18 nmol/L and 7.4 nmol/L, respectively, and the reaction was performed in sodium acetate buffer (50 mmol/L sodium acetate, pH 5.0, 0.008% Triton X-100).After the incubation for reaction, 50 µl of 8.0 µg/ml Streptavidin-XL665 (CIS bio international) dissolved in phosphate buffer.
Chain of Beta-secretase 1 (P56817 whole entry): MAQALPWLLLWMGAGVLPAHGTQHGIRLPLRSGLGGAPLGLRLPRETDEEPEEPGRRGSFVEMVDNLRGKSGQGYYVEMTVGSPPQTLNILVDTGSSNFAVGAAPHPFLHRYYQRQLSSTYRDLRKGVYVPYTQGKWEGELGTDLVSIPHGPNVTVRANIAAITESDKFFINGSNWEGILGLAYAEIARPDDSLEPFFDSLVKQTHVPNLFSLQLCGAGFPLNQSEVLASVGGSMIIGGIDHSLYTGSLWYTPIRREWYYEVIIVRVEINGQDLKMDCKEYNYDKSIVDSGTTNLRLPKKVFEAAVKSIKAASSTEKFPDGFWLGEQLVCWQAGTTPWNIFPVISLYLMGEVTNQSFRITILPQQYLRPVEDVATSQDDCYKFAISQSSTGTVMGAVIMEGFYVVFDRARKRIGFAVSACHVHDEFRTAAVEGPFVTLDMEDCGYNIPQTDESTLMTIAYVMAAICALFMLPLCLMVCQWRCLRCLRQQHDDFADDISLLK
In the case of `CC1=C[C@@](C)(c2cc(NC(=O)c3ncc(F)cc3F)ccc2F)N=C(N)O1`, the IC50 is less than 30 µM.

With `CC1=C[C@@](C)(c2cc(NC(=O)c3ncc(C#N)cc3F)ccc2F)N=C(N)O1`, the IC50 is less than 30 µM.

With `C[C@@]1(c2cc(NC(=O)c3ccc(C#N)cn3)ccc2Cl)CCOC(N)=N1`, the IC50 was less than 30 µM.

On to `CC1=C[C@@](C)(c2cc(NC(=O)c3ccc(C(F)(F)F)cn3)ccc2F)N=C(N)O1`, for which the IC50 was less than 30 µM.

`C[C@@]1(c2cc(NC(=O)c3ncc(F)cc3F)ccc2F)CCOC(N)=N1`: the IC50 is less than 30 µM.

`CC1=C[C@@](C)(c2cc(NC(=O)c3ccc(Cl)cn3)ccc2F)N=C(N)O1`: the IC50 is less than 30 µM.

In the case of `COc1cnc(C(=O)Nc2ccc(F)c([C@]3(C)C=C(C)OC(N)=N3)c2)cn1`, the IC50 was less than 30 µM.

Values taken from ChEMBL document CHEMBL3638961, “Oxazine derivatives” (2015).
